Activity data for 14 molecules are collected here from ChEMBL document CHEMBL4602680, “Dammarane-Type Triterpenoids from the Roots of Rhus chinensis and Their Preventive Effects on Zebrafish Heart Failure and Thrombosis” (J Nat Prod, 2020).

The species entered for data set [1] is Danio rerio. The data set is described as follows: Prevention of heart failure in verapamil treated zebrafish AB assessed as efficacy on heart dilation at 0.5 ug/ml preincubated for 4.5 hrs followed by verapamil treatment and measured after 30 mins relative to verapamil alone. Type of data set: functional.
For data set [2], the species on record is Danio rerio. The data set is described as follows: prevention of heart failure in verapamil treated zebrafish AB assessed as efficacy on venous congestion at 0.5 ug/ml preincubated for 4.5 hrs followed by verapamil treatment and measured after 30 mins relative to verapamil alone. Type of data set: functional.
A short description of data set [3]: Toxicity in zebrafish assessed as induction of adverse effect at 0.5 ug/ml in presence of verapamil. The arrangement: species or system Danio rerio. Particulars: in vivo.
Data set [4] is described as follows: Toxicity in zebrafish assessed as induction of adverse effect at 0.5 ug/ml. The arrangement: species or system Danio rerio. Particulars: in vivo.
Data set [5] is filed under the species Danio rerio. The data set is described as follows: prevention of heart failure in verapamil treated zebrafish AB assessed as efficacy on blood flow velocity at 0.5 ug/ml preincubated for 4.5 hrs followed by verapamil treatment and measured after 30 mins relative to verapamil alone. The format is functional.
For data set [6], the species on record is Danio rerio. The data set is described as follows: Antithrombotic activity in ponatinib treated zebrafish AB assessed as preventive efficacy on thrombosis at 0.5 ug/ml incubated for 18 hrs by O-dianisidine staining based assay relative to ponatinib alone. The format is functional.
The species named for data set [7] is Danio rerio. As to the kind of experiment: prevention of heart failure in verapamil treated zebrafish AB assessed as efficacy on heart rate at 0.5 ug/ml preincubated for 4.5 hrs followed by verapamil treatment and measured after 30 mins relative to verapamil alone. Type of data set: functional.
Data set [8] in a line: Toxicity in zebrafish assessed as induction of adverse effect at 0.5 ug/ml in presence of ponatinib. The arrangement: species or system Danio rerio. Particulars: in vivo.
The species entered for data set [9] is Danio rerio. As to the kind of experiment: prevention of heart failure in verapamil treated zebrafish AB assessed as efficacy on cardiac output at 0.5 ug/ml preincubated for 4.5 hrs followed by verapamil treatment and measured after 30 mins relative to verapamil alone. Type of data set: functional.
The species entered for data set [10] is Danio rerio. As to the kind of experiment: Prevention of heart failure in verapamil treated zebrafish AB assessed as efficacy on heart dilation preincubated for 4.5 hrs followed by verapamil treatment and measured after 30 mins. The format is functional, organism-based.
For data set [11], the species on record is Danio rerio. The data set is described as follows: Prevention of heart failure in verapamil treated zebrafish AB assessed as efficacy on heart dilation at 10 ug/ml preincubated for 4.5 hrs followed by verapamil treatment and measured after 30 mins relative to verapamil alone. The format is functional.
The species entered for data set [12] is Danio rerio. The data set is described as follows: prevention of heart failure in verapamil treated zebrafish AB assessed as efficacy on blood flow velocity at 10 ug/ml preincubated for 4.5 hrs followed by verapamil treatment and measured after 30 mins relative to verapamil alone. The format is functional.
The species named for data set [13] is Danio rerio. As to the kind of experiment: prevention of heart failure in verapamil treated zebrafish AB assessed as efficacy on cardiac output at 10 ug/ml preincubated for 4.5 hrs followed by verapamil treatment and measured after 30 mins relative to verapamil alone. The format is functional.
The species named for data set [14] is Danio rerio. As to the kind of experiment: prevention of heart failure in verapamil treated zebrafish AB assessed as efficacy on venous congestion at 10 ug/ml preincubated for 4.5 hrs followed by verapamil treatment and measured after 30 mins relative to verapamil alone. Type of data set: functional.
The species entered for data set [15] is Danio rerio. As to the kind of experiment: Antithrombotic activity in ponatinib treated zebrafish AB assessed as preventive efficacy on thrombosis at 45 ug/ml incubated for 18 hrs by O-dianisidine staining based assay relative to ponatinib alone. The format is functional.
The nature of data set [16]: Toxicity in zebrafish assessed as effect on blood flow at 0.5 ug/ml in presence of ponatinib. The arrangement: species or system Danio rerio. The following applies: in vivo.
Data set [17] is described as follows: Toxicity in zebrafish assessed as effect on blood flow at 0.5 ug/ml in presence of verapamil. The following applies: in vivo. The arrangement: species or system Danio rerio.
The species entered for data set [18] is Danio rerio. As to the kind of experiment: prevention of heart failure in verapamil treated zebrafish AB assessed as efficacy on cardiac output at 0.8 ug/ml preincubated for 4.5 hrs followed by verapamil treatment and measured after 30 mins relative to verapamil alone. Type of data set: functional.
The species entered for data set [19] is Danio rerio. As to the kind of experiment: prevention of heart failure in verapamil treated zebrafish AB assessed as efficacy on blood flow velocity at 0.8 ug/ml preincubated for 4.5 hrs followed by verapamil treatment and measured after 30 mins relative to verapamil alone. The format is functional.
The species named for data set [20] is Danio rerio. As to the kind of experiment: Prevention of heart failure in verapamil treated zebrafish AB assessed as efficacy on heart dilation at 0.8 ug/ml preincubated for 4.5 hrs followed by verapamil treatment and measured after 30 mins relative to verapamil alone. The format is functional.
The species named for data set [21] is Danio rerio. The data set is described as follows: prevention of heart failure in verapamil treated zebrafish AB assessed as efficacy on venous congestion at 0.8 ug/ml preincubated for 4.5 hrs followed by verapamil treatment and measured after 30 mins relative to verapamil alone. Type of data set: functional.
The species entered for data set [22] is Danio rerio. As to the kind of experiment: prevention of heart failure in verapamil treated zebrafish AB assessed as efficacy on heart rate at 0.8 ug/ml preincubated for 4.5 hrs followed by verapamil treatment and measured after 30 mins relative to verapamil alone. Type of data set: functional.

Activity calls are given as the source filed them. The rule behind the calls is not given here.

As to `C=C([C@@H]1CC=C(C)C(=O)O1)[C@@H]1CC[C@]2(C)[C@@H]1CC[C@@H]1[C@@]34CO[C@](O)(C[C@H]3O)C(C)(C)[C@@H]4CC[C@]12C`, the Activity was 66% in the data set listed under Danio rerio [1]; 51% in the data set listed under Danio rerio [2]; “Non-Toxic” in data set [3]; “Non-Toxic” in data set [4]; 65% in the data set filed under Danio rerio [5]; 68% in the data set listed under Danio rerio [6]. The Activity in the data set listed under Danio rerio [7] is 60%; in data set [8] it was “Non-Toxic”; in the data set listed under Danio rerio [9] it was 58%.

On to `CCCCC1=NC2(CCCC2)C(=O)N1Cc1ccc(-c2ccccc2-c2nnn[nH]2)cc1` [IRBESARTAN], for which the Activity in the data set filed under Danio rerio [1] stood at 30%; in the data set filed under Danio rerio [2], 36%; in the data set listed under Danio rerio [5], 15%; in the data set filed under Danio rerio [9], 25%.

For the molecule `C=C(CCC=C(CO)CO)[C@@H]1CC[C@]2(C)[C@@H]1CC[C@@H]1[C@@]3(C)CCC(=O)C(C)(C)[C@@H]3CC[C@]12C`, the Activity entry in data set [3], in [4] and in data set [8] was “Non-Toxic” in each case. In the data set listed under Danio rerio [10], the outcome was inactive.

As to `C=C([C@@H]1CC=C(C)C(=O)O1)[C@@H]1CC[C@]2(C)[C@@H]1CC[C@@H]1[C@@]3(C)CCC(=O)C(C)(C)[C@@H]3CC[C@]12C`, the Activity in the data set listed under Danio rerio [1] was 55%; in the data set filed under Danio rerio [2], 23%; in [3] it was “Non-Toxic”; in [4], “Non-Toxic”; in the data set listed under Danio rerio [5], 67%; in the data set filed under Danio rerio [6] it was 65%. For the same molecule, the figures for the Activity (in the data set filed under Danio rerio [7]; in [8]; in the data set filed under Danio rerio [9]) were 27%, “Non-Toxic” and 41%, respectively.

In the case of `C=C([C@@H]1CC=C(C)C(=O)O1)[C@@H]1CC[C@]2(C)[C@@H]1CC[C@@H]1[C@@]34CO[C@](O)([C@@H](O)C3)C(C)(C)[C@@H]4CC[C@]12C`, the Activity in the data set filed under Danio rerio [1] was 73%; in the data set filed under Danio rerio [2] it was 31%; in data set [3], “Non-Toxic”; in data set [4], “Non-Toxic”; in the data set listed under Danio rerio [5], 27%; in the data set filed under Danio rerio [6], 76%. Also, the Activity in the data set listed under Danio rerio [7] was 57%; in data set [8] it was “Non-Toxic”; in the data set listed under Danio rerio [9], 22%.

For `CCOC(=O)[C@H](CCc1ccccc1)N[C@@H](C)C(=O)N1CCC[C@H]1C(=O)O` [ENALAPRIL], the Activity in the data set listed under Danio rerio [11] came out at 31%; in the data set listed under Danio rerio [12], 26%; in the data set filed under Danio rerio [13], 34%; in the data set listed under Danio rerio [14], 34%.

In the case of `C=C([C@@H]1CC[C@]2(C)[C@@H]1CC[C@@H]1[C@]34CC[C@@](O)(OC3)C(C)(C)[C@@H]4CC[C@]12C)[C@@H]1OC(=O)C(C)=C[C@H]1O`, the Activity in the data set filed under Danio rerio [1] is recorded as 63%; in the data set filed under Danio rerio [2], 59%; in data set [3], “Non-Toxic”; in [4], “Non-Toxic”; in the data set filed under Danio rerio [5], 65%; in the data set filed under Danio rerio [6], 10%. Also, the Activity is 54% in the data set filed under Danio rerio [7], “Non-Toxic” in [8] and 64% in the data set filed under Danio rerio [9].

For `CC(=O)Oc1ccccc1C(=O)O` [ASPIRIN], the Activity in the data set filed under Danio rerio [15] is given as 86%.

For the molecule `NS(=O)(=O)c1cc2c(cc1Cl)NCNS2(=O)=O` [HYDROCHLOROTHIAZIDE], the Activity in the data set filed under Danio rerio [1] is recorded as 56%; in the data set filed under Danio rerio [2], 60%; in the data set filed under Danio rerio [5], 33%; in the data set listed under Danio rerio [9], 53%.

In the case of `C=C([C@@H]1CC=C(C)C(=O)O1)[C@@H]1CC[C@]2(C)[C@@H]1CC[C@@H]1[C@]34CC[C@@](O)(OC3)C(C)(C)[C@@H]4CC[C@]12C`, the Activity result in [16] is “Toxic”; in data set [4], “Non-Toxic”; in data set [17] it was “Toxic”.

For the molecule `C/C(=C/CC/C(CO)=C1\CC[C@]2(C)[C@@H]1CC[C@@H]1[C@@]3(C)CCC(=O)C(C)(C)[C@@H]3CC[C@]12C)CO`, the Activity result in [3], in data set [4] and in data set [8] was “Non-Toxic” each time. For the same molecule, the result in the data set filed under Danio rerio [10] was inactive.

In the case of `C[C@H]1O[C@@H](O[C@H]2[C@@H](O)C[C@H](O[C@H]3[C@@H](O)C[C@H](O[C@H]4CC[C@@]5(C)[C@H](CC[C@@H]6[C@@H]5C[C@@H](O)[C@]5(C)[C@@H](C7=CC(=O)OC7)CC[C@]65O)C4)O[C@@H]3C)O[C@@H]2C)C[C@H](O)[C@@H]1O` [DIGOXIN], the Activity in the data set listed under Danio rerio [18] amounted to 41%; in the data set filed under Danio rerio [1], 53%; in the data set filed under Danio rerio [2], 73%; in the data set filed under Danio rerio [19], 38%; in the data set filed under Danio rerio [20] it was 68%; in the data set listed under Danio rerio [5], 28%. Also, the figures for the Activity in the data set listed under Danio rerio [21], in the data set listed under Danio rerio [22] and in the data set filed under Danio rerio [9] were 67%, 52% and 40%, respectively.

Turning to `C=C(CC/C=C(/C)C(=O)O)[C@@H]1CC[C@]2(C)[C@@H]1CC[C@@H]1[C@]34CC[C@@](O)(OC3)C(C)(C)[C@@H]4CC[C@]12C`, the Activity is reported as 65% in the data set listed under Danio rerio [1]; 62% in the data set filed under Danio rerio [2]; “Non-Toxic” in data set [3]; “Non-Toxic” in data set [4]; 83% in the data set listed under Danio rerio [5]; 24% in the data set filed under Danio rerio [6]. The Activity in the data set listed under Danio rerio [7] is 77%; in data set [8], “Non-Toxic”; in the data set filed under Danio rerio [9] it was 72%.

For the molecule `COCCc1ccc(OCC(O)CNC(C)C)cc1` (configuration not stated) [METOPROLOL], the Activity in the data set listed under Danio rerio [1] is 34%; in the data set listed under Danio rerio [2] it was 29%; in the data set listed under Danio rerio [5], 17%; in the data set filed under Danio rerio [9] it was 35%.
